Measurements taken from US12498382B2, “Biomarkers for vitiligo” (INCYTE CORPORATION, priority 2019, dated 2025).

Test system: HaCaT cells
Test: Concentrations of inflammatory mediators produced by HaCaT cells stimulated with TNFα and IFNγ in presence/absence of JAK inhibitors (ProCarta)
Format: cell-based, human
Protocol: After 48 hours, cell culture media was removed from 24 well plates and replaced with 250 uL of media containing serial diluted drug, then incubated for 15 minutes at 37° C./5% CO2. […] The final concentration of Recombinant Human Interferon gamma and Recombinant Human Tumor Necrosis Factor alpha was 25 ng/mL of each cytokine. Cytokine stimulation added to wells containing drug brought the final concentrations for each drug treatment to 25 nM, 50 nM, 100 nM, and 200 nM. Treated plates were mixed by gentle agitation for 30 seconds then incubated for 24 hours at 37° C./5% CO2. At the end of the 24 hour incubation media was immediately removed from each plate.
Media was incubated with antibody conjugated beads designed to bind to the epitopes of specific target proteins and identify the bound protein through the bead's distinctive spectral pattern. Biotinylated detection antibodies, designed to bind to different epitopes of the same target proteins, and Streptavidin-PE are added to assay plates to quantify the amount of the target proteins. Assay plates were read on the Luminex 200 and data were expressed as Net Median Fluorescence Intensity. […] The concentration of each protein was extrapolated from the antigen standard curve and concentrations were expressed as pg/mL (Table 15).

[1] = TNFα 25 ng/mL + IFNγ 25 ng/mL, drug 25 nM
[2] = TNFα 25 ng/mL + IFNγ 25 ng/mL, drug 50 nM
[3] = TNFα 25 ng/mL + IFNγ 25 ng/mL, drug 100 nM
[4] = TNFα 25 ng/mL + IFNγ 25 ng/mL, drug 200 nM

Cc1n[nH]c(C)c1-c1cnn(C2(CC#N)CN(c3cc(F)c(C(=O)N[C@@H](C)C(F)(F)F)cc3F)C2)c1 [Cpc C]
BDNF concentration [1]: 4.01 ± 0.19 pg/mL | EGF concentration [1]: 1.54 ± 0.13 pg/mL | Eotaxin concentration [1]: 10.08 ± 0.15 pg/mL | FGF-2 concentration [1]: 21.41 ± 1.39 pg/mL | GM-CSF concentration [1]: 130 ± 3.15 pg/mL | GRO alpha concentration [1]: 548.93 ± 27.91 pg/mL | HGF concentration [1]: 13.66 ± 0.51 pg/mL | IFN alpha concentration [1]: 0.25 ± 0.01 pg/mL | bNGF concentration [1]: 7.86 ± 0.56 pg/mL | BDNF concentration [2]: 4 ± 0.23 pg/mL | EGF concentration [2]: 1.14 ± 0.17 pg/mL | Eotaxin concentration [2]: 9.84 ± 0.25 pg/mL | FGF-2 concentration [2]: 20.77 ± 1.37 pg/mL | GM-CSF concentration [2]: 126.18 ± 3.4 pg/mL | GRO alpha concentration [2]: 544.74 ± 37.71 pg/mL | HGF concentration [2]: 13.04 ± 0.28 pg/mL | IFN alpha concentration [2]: 0.26 ± 0 pg/mL | bNGF concentration [2]: 6.86 ± 0.6 pg/mL | BDNF concentration [3]: 4.24 ± 0.26 pg/mL | EGF concentration [3]: 1.35 ± 0.18 pg/mL | Eotaxin concentration [3]: 9.89 ± 0.22 pg/mL | FGF-2 concentration [3]: 20.84 ± 1.31 pg/mL | GM-CSF concentration [3]: 134.94 ± 4.45 pg/mL | GRO alpha concentration [3]: 575.98 ± 43.22 pg/mL | HGF concentration [3]: 13.53 ± 0.5 pg/mL | IFN alpha concentration [3]: 0.26 ± 0 pg/mL | bNGF concentration [3]: 6.93 ± 1.04 pg/mL | BDNF concentration [4]: 3.97 ± 0.22 pg/mL | EGF concentration [4]: 1.46 ± 0.17 pg/mL | Eotaxin concentration [4]: 9.89 ± 0.21 pg/mL | FGF-2 concentration [4]: 20.93 ± 1.37 pg/mL | GM-CSF concentration [4]: 132.6 ± 3.95 pg/mL | GRO alpha concentration [4]: 560.99 ± 43.32 pg/mL | HGF concentration [4]: 13.6 ± 0.53 pg/mL | IFN alpha concentration [4]: 0.26 ± 0 pg/mL | bNGF concentration [4]: 5.7 ± 0.76 pg/mL | BDNF concentration (no stimulation, drug 200 nM): 5.7 ± 0.31 pg/mL | EGF concentration (no stimulation, drug 200 nM): 1.12 ± 0.14 pg/mL | Eotaxin concentration (no stimulation, drug 200 nM): 2.28 ± 0.07 pg/mL | FGF-2 concentration (no stimulation, drug 200 nM): 8.77 ± 0.79 pg/mL | GM-CSF concentration (no stimulation, drug 200 nM): 9.48 ± 1.48 pg/mL | GRO alpha concentration (no stimulation, drug 200 nM): 236.87 ± 11.04 pg/mL | HGF concentration (no stimulation, drug 200 nM): 4.74 ± 0.47 pg/mL | IFN alpha concentration (no stimulation, drug 200 nM): 0.2 ± 0.03 pg/mL | IFN gamma concentration (no stimulation, drug 200 nM): 3.81 ± 0.74 pg/mL | bNGF concentration (no stimulation, drug 200 nM): 3.73 ± 0.63 pg/mL

CC(O)c1nc2cnc3ccsc3c2n1C1CCC(CC#N)OC1 (centres unmarked) [Cpc D]
BDNF concentration [1]: 4.08 ± 0.26 pg/mL | EGF concentration [1]: 1.49 ± 0.14 pg/mL | Eotaxin concentration [1]: 9.82 ± 0.2 pg/mL | FGF-2 concentration [1]: 22.89 ± 1.39 pg/mL | GM-CSF concentration [1]: 126.24 ± 3.53 pg/mL | GRO alpha concentration [1]: 539.42 ± 38.03 pg/mL | HGF concentration [1]: 13.47 ± 0.45 pg/mL | IFN alpha concentration [1]: 0.26 ± 0.01 pg/mL | bNGF concentration [1]: 7.44 ± 0.63 pg/mL | BDNF concentration [2]: 3.97 ± 0.25 pg/mL | EGF concentration [2]: 1.31 ± 0.19 pg/mL | Eotaxin concentration [2]: 9.58 ± 0.21 pg/mL | FGF-2 concentration [2]: 20.96 ± 1.43 pg/mL | GM-CSF concentration [2]: 124.89 ± 3.37 pg/mL | GRO alpha concentration [2]: 555.54 ± 44.74 pg/mL | HGF concentration [2]: 13.27 ± 0.45 pg/mL | IFN alpha concentration [2]: 0.26 ± 0 pg/mL | bNGF concentration [2]: 6.17 ± 0.74 pg/mL | BDNF concentration [3]: 4.18 ± 0.28 pg/mL | EGF concentration [3]: 1.23 ± 0.16 pg/mL | Eotaxin concentration [3]: 10.02 ± 0.19 pg/mL | FGF-2 concentration [3]: 21.77 ± 1.51 pg/mL | GM-CSF concentration [3]: 133.19 ± 3.97 pg/mL | GRO alpha concentration [3]: 578.28 ± 48.32 pg/mL | HGF concentration [3]: 13.75 ± 0.4 pg/mL | IFN alpha concentration [3]: 0.26 ± 0 pg/mL | bNGF concentration [3]: 7.12 ± 0.8 pg/mL | BDNF concentration [4]: 4.03 ± 0.28 pg/mL | EGF concentration [4]: 1.45 ± 0.17 pg/mL | Eotaxin concentration [4]: 9.85 ± 0.17 pg/mL | FGF-2 concentration [4]: 20.96 ± 1.34 pg/mL | GM-CSF concentration [4]: 130.42 ± 3.44 pg/mL | GRO alpha concentration [4]: 564.53 ± 52.35 pg/mL | HGF concentration [4]: 13.8 ± 0.48 pg/mL | IFN alpha concentration [4]: 0.25 ± 0.02 pg/mL | bNGF concentration [4]: 6.73 ± 0.61 pg/mL | BDNF concentration (no stimulation, drug 200 nM): 5.66 ± 0.38 pg/mL | EGF concentration (no stimulation, drug 200 nM): 1.24 ± 0.09 pg/mL | Eotaxin concentration (no stimulation, drug 200 nM): 2.08 ± 0.07 pg/mL | FGF-2 concentration (no stimulation, drug 200 nM): 8.19 ± 1.07 pg/mL | GM-CSF concentration (no stimulation, drug 200 nM): 8.49 ± 1.84 pg/mL | GRO alpha concentration (no stimulation, drug 200 nM): 234.42 ± 14.21 pg/mL | HGF concentration (no stimulation, drug 200 nM): 3.68 ± 0.39 pg/mL | IFN alpha concentration (no stimulation, drug 200 nM): 0.22 ± 0.03 pg/mL | IFN gamma concentration (no stimulation, drug 200 nM): 4.52 ± 0.68 pg/mL | bNGF concentration (no stimulation, drug 200 nM): 3.47 ± 0.48 pg/mL
